Data taken from ChEMBL document CHEMBL2151008, “Enhanced ROS production and cell death through combined photo- and sono-activation of conventional photosensitising drugs” (2011).
The source made the active and inactive calls. No cut-off for these calls is given here.

How the values were obtained:
CHO [1] = experiment: Cytotoxicity against CHO cells assessed as cell death at 0.1 to 100 uM after 3 hrs followed by photo-irradiation for 30 secs measured 24 hrs post irradiation by MTT assay; format: functional, cell-based; conditions: Cricetulus griseus
CHO [2] = experiment: Cytotoxicity against CHO cells assessed as cell death at 0.1 to 100 uM after 3 hrs followed by sono-irradiation for 30 secs measured 24 hrs post irradiation by MTT assay; format: functional, cell-based; conditions: Cricetulus griseus
CHO [3] = experiment: Cytotoxicity against CHO cells assessed as cell death at 0.1 to 100 uM after 3 hrs followed by photo/sono-irradiation for 30 secs measured 24 hrs post irradiation by MTT assay; format: functional, cell-based; conditions: Cricetulus griseus
[4] = ROS-generating activity of the photo-irradiated compound assessed as singlet oxygen generation measuring reduction in absorbance at 410 nm at 5 uM by DPBF oxidation method; parameters: scale not given: the % may be the effect or the level left
[5] = ROS-generating activity of the sono-irradiated compound assessed as singlet oxygen generation measuring reduction in absorbance at 410 nm at 5 uM by DPBF oxidation method; parameters: scale not given: the % may be the effect or the level left
[6] = ROS-generating activity of the photo/sono-irradiated compound assessed as singlet oxygen generation measuring reduction in absorbance at 410 nm at 5 uM by DPBF oxidation method; parameters: scale not given: the % may be the effect or the level left
CHO [7] = experiment: Cytotoxicity against CHO cells assessed as cell death at 100 uM after 3 hrs followed by photo/sono-irradiation for 30 secs measured 24 hrs post irradiation by MTT assay relative to photo-irradiated cells; format: functional, Cricetulus griseus
CHO [8] = experiment: Cytotoxicity against CHO cells assessed as cell death at 100 uM after 3 hrs followed by photo/sono-irradiation for 30 secs measured 24 hrs post irradiation by MTT assay relative to sono-irradiated cells; format: functional, Cricetulus griseus
CHO [9] = experiment: Cytotoxicity against CHO cells assessed as cell viability at 100 uM after 3 hrs by MTT assay; format: functional; conditions: Cricetulus griseus, read-out: Activity
CHO [10] = experiment: Cytotoxicity against CHO cells after 3 hrs followed by photo/sono-irradiation for 30 secs measured 24 hrs post irradiation by MTT assay; format: functional, Cricetulus griseus
CHO [11] = experiment: Cytotoxicity against CHO cells after 3 hrs followed by photo-irradiation for 30 secs measured 24 hrs post irradiation by MTT assay; format: functional, Cricetulus griseus
CHO [12] = experiment: Cytotoxicity against CHO cells after 3 hrs followed by sono-irradiation for 30 secs measured 24 hrs post irradiation by MTT assay; format: functional, Cricetulus griseus
CHO [13] = experiment: Cytotoxicity against CHO cells after 3 hrs by MTT assay; format: functional, Cricetulus griseus
CHO [14] = experiment: Cytotoxicity against CHO cells assessed as cell death at 100 uM after 3 hrs followed by photo-irradiation for 30 secs measured 24 hrs post irradiation by MTT assay; format: functional, Cricetulus griseus
CHO [15] = experiment: Cytotoxicity against CHO cells assessed as cell death at 100 uM after 3 hrs followed by sono-irradiation for 30 secs measured 24 hrs post irradiation by MTT assay; format: functional, Cricetulus griseus
CHO [16] = experiment: Cytotoxicity against CHO cells assessed as cell death at 100 uM after 3 hrs followed by photo/sono-irradiation for 30 secs measured 24 hrs post irradiation by MTT assay; format: functional, Cricetulus griseus

With `CN(C)c1ccc2nc3ccc(=[N+](C)C)cc-3sc2c1` the Activity (CHO [1]) was “Active”, the Activity (CHO [2]) was “Active” and the Activity (CHO [3]) was “Active”. It also gave an Activity [4] of 38.8%, an Activity [5] of 40.1% and an Activity [6] of 71.8%.

For `CN(C)c1ccc2nc3ccc(N(C)C)cc3[s+]c2c1.[Cl-]` [METHYLENE BLUE ANHYDROUS], the “fold change (FC)” value (CHO [7]) was 2, the Activity (CHO [8]) was 43% and the viability at 100 µM (CHO [9]) was 80%.

With `O=C([O-])c1c(Cl)c(Cl)c(Cl)c(Cl)c1-c1c2cc(I)c(=O)c(I)c-2oc2c(I)c([O-])c(I)cc12.[Na+].[Na+]` [ROSE BENGAL SODIUM] the viability at 100 µM (CHO [9]) was 65%, the LD50 (CHO [10]) was 2 µmol and the LD50 (CHO [11]) was 3.3 µmol. It also gave an LD50 (CHO [12]) of 38.5 µmol, an LD50 (CHO [13]) of 138.4 µmol and an Activity (CHO [14]) of 95%. The Activity (CHO [15]) was 95%, the Activity (CHO [16]) was 95% and the Activity [4] was 44.7%. The Activity [5] was 58.4% and the Activity [6] was 74.9%.
